In PubChem BioAssay (NCI):
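Briefly, cells in 96-well plates were exposed to five compound concentrations for 48 h, and endpoints were estimated by linear interpolation. Here, GI50 denotes the concentration required for 50% inhibition of growth. TGI: concentration producing complete growth inhibition.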

Experiments:
Test in all cases: NCI-60 cell line screen, 48 h
SK-MEL-2 melanoma = system: SK-MEL-2 melanoma
T-47D breast = system: T-47D breast
SNB-19 CNS = system: SNB-19 CNS
NCI/ADR-RES ovarian = system: NCI/ADR-RES ovarian
SN12C renal = system: SN12C renal
M14 melanoma = system: M14 melanoma
SK-MEL-5 melanoma = system: SK-MEL-5 melanoma
NCI-H23 lung = system: NCI-H23 lung
786-0 renal = system: 786-0 renal
OVCAR-8 ovarian = system: OVCAR-8 ovarian

NC(=O)Nc1ccc2ncnc(Nc3ccc(Cl)cc3)c2c1
GI50 (SK-MEL-2 melanoma): 18.5 µM | TGI (SK-MEL-2 melanoma): 46.7 µM | GI50 (T-47D breast): 10.2 µM | TGI (T-47D breast): > 85.1 µM | GI50 (SNB-19 CNS): 14.1 µM | TGI (SNB-19 CNS): > 100 µM | GI50 (NCI/ADR-RES ovarian): 18.3 µM | TGI (NCI/ADR-RES ovarian): > 81.5 µM | GI50 (SN12C renal): 11.4 µM | TGI (SN12C renal): > 70.7 µM | GI50 (M14 melanoma): 24.4 µM | TGI (M14 melanoma): 68.6 µM | GI50 (SK-MEL-5 melanoma): 13.6 µM | TGI (SK-MEL-5 melanoma): 30.8 µM | GI50 (NCI-H23 lung): 21.6 µM | TGI (NCI-H23 lung): 69 µM | GI50 (786-0 renal): 19.3 µM | TGI (786-0 renal): 91.7 µM | GI50 (OVCAR-8 ovarian): 20.4 µM | TGI (OVCAR-8 ovarian): > 96.6 µM

C/C1=C\CC[C@@](C)(O)[C@H]2C[C@H](CC/C(C)=C/CC1)C1(CC1)C(=O)O2
GI50 (SK-MEL-2 melanoma): 39.1 µM | TGI (SK-MEL-2 melanoma): > 100 µM | GI50 (T-47D breast): 36.5 µM | TGI (T-47D breast): > 100 µM | GI50 (SNB-19 CNS): 85.6 µM | TGI (SNB-19 CNS): > 100 µM | GI50 (NCI/ADR-RES ovarian): 23.6 µM | TGI (NCI/ADR-RES ovarian): 57.4 µM | GI50 (SN12C renal): 20.3 µM | TGI (SN12C renal): 43.2 µM | GI50 (M14 melanoma): 31.4 µM | TGI (M14 melanoma): > 100 µM | GI50 (SK-MEL-5 melanoma): 18.6 µM | TGI (SK-MEL-5 melanoma): 35.1 µM | GI50 (NCI-H23 lung): 38 µM | TGI (NCI-H23 lung): > 100 µM | GI50 (786-0 renal): 16.4 µM | TGI (786-0 renal): 30.6 µM | GI50 (OVCAR-8 ovarian): 20 µM | TGI (OVCAR-8 ovarian): 40.8 µM

O=C1OCC2=C1C(c1cccc(F)c1)c1cc3c(cc1N2CCO)OCCO3 (centres undefined)
GI50 (SK-MEL-2 melanoma): 0.276 µM | TGI (SK-MEL-2 melanoma): > 50 µM | GI50 (T-47D breast): 0.203 µM | TGI (T-47D breast): > 50 µM | GI50 (SNB-19 CNS): 0.275 µM | TGI (SNB-19 CNS): > 50 µM | GI50 (NCI/ADR-RES ovarian): 0.208 µM | TGI (NCI/ADR-RES ovarian): > 50 µM | GI50 (SN12C renal): 0.345 µM | TGI (SN12C renal): > 50 µM | GI50 (M14 melanoma): 0.105 µM | TGI (M14 melanoma): > 50 µM | GI50 (SK-MEL-5 melanoma): 0.162 µM | GI50 (NCI-H23 lung): 0.35 µM | TGI (NCI-H23 lung): > 50 µM | GI50 (786-0 renal): 0.208 µM | TGI (786-0 renal): > 50 µM | GI50 (OVCAR-8 ovarian): 0.244 µM | TGI (OVCAR-8 ovarian): > 50 µM

CC(=O)OC1CCC2(C)C(CCC3C2CCC2(C)C(C4=CC(=O)OC4)CCC32)C1 (centres undefined)
GI50 (SK-MEL-2 melanoma): 7.72 µM | TGI (SK-MEL-2 melanoma): 34.4 µM | GI50 (T-47D breast): 13.1 µM | TGI (T-47D breast): 45.5 µM | GI50 (SNB-19 CNS): 8.49 µM | TGI (SNB-19 CNS): 38.4 µM | GI50 (NCI/ADR-RES ovarian): 8.37 µM | TGI (NCI/ADR-RES ovarian): 42.7 µM | GI50 (SN12C renal): 11.1 µM | TGI (SN12C renal): 99.1 µM | GI50 (M14 melanoma): 5.93 µM | TGI (M14 melanoma): > 100 µM | GI50 (SK-MEL-5 melanoma): 2.37 µM | TGI (SK-MEL-5 melanoma): 6.58 µM | GI50 (NCI-H23 lung): 3.46 µM | TGI (NCI-H23 lung): 14.5 µM | GI50 (786-0 renal): 15.6 µM | TGI (786-0 renal): 39.7 µM | GI50 (OVCAR-8 ovarian): 4.2 µM | TGI (OVCAR-8 ovarian): 36.7 µM

Cc1c(N2C(=O)/C(=C\c3ccc(O)cc3)N=C2c2ccccc2)c(=O)n(-c2ccccc2)n1C
GI50 (SK-MEL-2 melanoma): > 100 µM | TGI (SK-MEL-2 melanoma): > 100 µM | GI50 (T-47D breast): > 100 µM | TGI (T-47D breast): > 100 µM | GI50 (SNB-19 CNS): > 100 µM | TGI (SNB-19 CNS): > 100 µM | GI50 (NCI/ADR-RES ovarian): > 100 µM | TGI (NCI/ADR-RES ovarian): > 100 µM | GI50 (SN12C renal): > 100 µM | TGI (SN12C renal): > 100 µM | GI50 (M14 melanoma): > 100 µM | TGI (M14 melanoma): > 100 µM | GI50 (SK-MEL-5 melanoma): > 100 µM | TGI (SK-MEL-5 melanoma): > 100 µM | GI50 (NCI-H23 lung): > 100 µM | TGI (NCI-H23 lung): > 100 µM | GI50 (786-0 renal): > 100 µM | TGI (786-0 renal): > 100 µM | GI50 (OVCAR-8 ovarian): > 100 µM | TGI (OVCAR-8 ovarian): > 100 µM

COc1ccc(S(=O)(=O)O)cc1NS(=O)(=O)c1ccc(C)cc1
TGI (SK-MEL-2 melanoma): > 100 µM | TGI (T-47D breast): > 100 µM | TGI (SNB-19 CNS): > 100 µM | TGI (NCI/ADR-RES ovarian): > 100 µM | TGI (SN12C renal): > 100 µM | TGI (M14 melanoma): > 100 µM | TGI (SK-MEL-5 melanoma): > 100 µM | TGI (NCI-H23 lung): > 100 µM | TGI (786-0 renal): > 100 µM | TGI (OVCAR-8 ovarian): > 100 µM

COc1cc(/C=C/C(=O)c2c(C)n([O-])c3cc(C)c(C)cc3[n+]2=O)cc(OC)c1OC
GI50 (SK-MEL-2 melanoma): 16.4 µM | TGI (SK-MEL-2 melanoma): 32.9 µM | GI50 (T-47D breast): 20.5 µM | TGI (T-47D breast): 73.7 µM | GI50 (SNB-19 CNS): 16.9 µM | TGI (SNB-19 CNS): 39.9 µM | GI50 (NCI/ADR-RES ovarian): 23 µM | TGI (NCI/ADR-RES ovarian): 56.6 µM | GI50 (SN12C renal): 17.5 µM | TGI (SN12C renal): 42.7 µM | GI50 (M14 melanoma): 16.1 µM | TGI (M14 melanoma): 60.2 µM | GI50 (SK-MEL-5 melanoma): 13.9 µM | TGI (SK-MEL-5 melanoma): 34 µM | GI50 (NCI-H23 lung): 16.2 µM | TGI (NCI-H23 lung): 41.9 µM | GI50 (786-0 renal): 19.2 µM | TGI (786-0 renal): 46.1 µM | GI50 (OVCAR-8 ovarian): 23.6 µM | TGI (OVCAR-8 ovarian): 71.8 µM

O=C1Nc2ccccc2C12CC(c1ccccc1)=NN2 (centres undefined)
GI50 (SK-MEL-2 melanoma): 5.46 µM | TGI (SK-MEL-2 melanoma): 46.5 µM | GI50 (T-47D breast): 6.98 µM | TGI (T-47D breast): > 100 µM | GI50 (SNB-19 CNS): 12.7 µM | TGI (SNB-19 CNS): > 100 µM | GI50 (NCI/ADR-RES ovarian): 7.49 µM | TGI (NCI/ADR-RES ovarian): > 100 µM | GI50 (SN12C renal): 7.73 µM | TGI (SN12C renal): > 100 µM | GI50 (M14 melanoma): 4.9 µM | TGI (M14 melanoma): 46.3 µM | GI50 (SK-MEL-5 melanoma): 4.81 µM | TGI (SK-MEL-5 melanoma): > 100 µM | GI50 (NCI-H23 lung): 9.07 µM | TGI (NCI-H23 lung): > 100 µM | GI50 (786-0 renal): 6.36 µM | TGI (786-0 renal): 65.2 µM | GI50 (OVCAR-8 ovarian): 9.28 µM | TGI (OVCAR-8 ovarian): 96.9 µM

Cc1cc(-c2ccccc2)c(C)n1Cc1ccc(Cl)cc1
GI50 (SK-MEL-2 melanoma): 4.24 µM | TGI (SK-MEL-2 melanoma): 19.5 µM | GI50 (T-47D breast): 5.26 µM | TGI (T-47D breast): > 100 µM | GI50 (SNB-19 CNS): 36.4 µM | TGI (SNB-19 CNS): > 100 µM | GI50 (NCI/ADR-RES ovarian): 3.64 µM | TGI (NCI/ADR-RES ovarian): 66.3 µM | GI50 (SN12C renal): 5.78 µM | TGI (SN12C renal): > 100 µM | GI50 (M14 melanoma): 3.21 µM | TGI (M14 melanoma): 31.6 µM | GI50 (SK-MEL-5 melanoma): 4.23 µM | TGI (SK-MEL-5 melanoma): 66.8 µM | GI50 (NCI-H23 lung): 8.24 µM | TGI (NCI-H23 lung): > 100 µM | GI50 (786-0 renal): 5.35 µM | TGI (786-0 renal): 39.9 µM | GI50 (OVCAR-8 ovarian): 5.95 µM | TGI (OVCAR-8 ovarian): > 100 µM
